{
  "source": "patent US11077035B2",
  "about": "“Hair treatment compositions and methods” (SYTHEON LIMITED, priority 2017, dated 2021)",
  "key": {"Singlet oxygen quenching": {"experiment": "Singlet oxygen quenching", "format": "biochemical", "text": "The first study evaluated the quenching ability of the aryl alkanones versus αTocopherol. The test methodology employed is the method of W. Mullen et al., J of Agriculture & Food Chemistry, 59(9):3754-3762, 2011)."}, "[1]": {"experiment": "Chelation study 2C: Fe^2+ chelation", "settings": "for % Remaining of FL (20 min) / % Remaining of FL (40 min) / % Remaining of FL (80 min): Fe^2+ ions 200 μM"}, "[2]": {"settings": "for change in fluorescence decay pattern with and without ten-fold excess of CaCl2 (selectivity Cu^2+ over Ca^2+): comparison of studies 2A and 2B; for Cu^2+ chelation capability, in words: with CaCl2 (study 2A)", "experimental": "Food Chem: 50(10); 2772-2777, 2002\nThe first chelation study (2A) evaluated the Cu^2+ chelation capability of the test and comparative chelators in the presence of excess Ca^2+. Here, a Fenton reaction was initiated with a mixture of Cu^2+, CaCl2 and hydrogen peroxide at alkaline condition, the mixture comprising [CuCl2]=200 μM, [H2O2]=0.055 μM, [CaCl2]2.3 mM, and [FL]=6.20×10^−8 M. The test compounds were evaluated at a concentration of 600 μM for each of Compounds 1D, 1E and 1F and Deferiprone (a 3 molar excess) and 200 μM for each of EDDS and EDTA."}, "[3]": {"experiment": "Stability under singlet oxygen environment (HPLC)", "format": "physicochemical", "experimental": "A second study was performed to determine the stability of the aryl alkanones and α tocopherol under a singlet oxygen environment. In this study, 5 ml of 1 mg/ml solution of each test compound (in DMSO) was mixed with 5 ml of a solution (pH 5) containing 0.16 mg/ml lithium molybdate, 4 ml 0.01 M NaOH, and 5 ml of 0.015% H2O2. 500 μl from each mixture was taken every 2 mins and added to 1 ml of 1 mg/ml curcumin solution (in DMSO) to stop the reaction. The mixture was then injected into an HPLC to monitor product degradation."}, "[4]": {"experiment": "Chelation study 2D: Fe^3+ chelation", "settings": "for % Remaining of FL (20 min) / % Remaining of FL (40 min) / % Remaining of FL (80 min): Fe^3+ ions; for Fe^3+ chelation capability, in words: study 2D"}},
  "data": [
    {"molecule": "COc1ccc(CC(C(C)=O)C(C)=O)cc1OC", "note": "[Compound 1D, 3-(3,4-dimethoxybenzyl)-2,4-pentanedione]", "values": [
      {"measurement": "Antioxidant Power against singlet oxygen", "setting": "Singlet oxygen quenching", "value": "4,590 μmole Trolox equivalent/g"},
      {"measurement": "% Remaining of FL (20 min)", "setting": "[1]", "value": 98.3, "unit": "%"},
      {"measurement": "% Remaining of FL (40 min)", "setting": "[1]", "value": 98.3, "unit": "%"},
      {"measurement": "% Remaining of FL (80 min)", "setting": "[1]", "value": 98.3, "unit": "%"},
      {"measurement": "change in fluorescence decay pattern with and without ten-fold excess of CaCl2 (selectivity Cu^2+ over Ca^2+)", "setting": "[2]", "value": "very little change"},
      {"measurement": "Cu^2+ chelation capability, in words", "setting": "[2]", "value": "almost completely chelated"}
    ]},
    {"molecule": "COc1ccc(CC(C(C)=O)C(C)=O)cc1", "note": "[Compound 1E, 3-(4-methoxybenzyl)-2,4-pentanedione]", "values": [
      {"measurement": "Antioxidant Power against singlet oxygen", "setting": "Singlet oxygen quenching", "value": "4,374 μmole Trolox equivalent/g"},
      {"measurement": "% Remaining of FL (20 min)", "setting": "[1]", "value": 99.6, "unit": "%"},
      {"measurement": "% Remaining of FL (40 min)", "setting": "[1]", "value": 99.2, "unit": "%"},
      {"measurement": "% Remaining of FL (80 min)", "setting": "[1]", "value": 99.2, "unit": "%"},
      {"measurement": "change in fluorescence decay pattern with and without ten-fold excess of CaCl2 (selectivity Cu^2+ over Ca^2+)", "setting": "[2]", "value": "very little change"},
      {"measurement": "Cu^2+ chelation capability, in words", "setting": "[2]", "value": "almost completely chelated"}
    ]},
    {"molecule": "COc1cc(CC(C(C)=O)C(C)=O)cc(OC)c1OC", "note": "[Compound 1F, 3-(3,4,5-trimethoxybenzyl)-2,4-pentanedione]", "values": [
      {"measurement": "Antioxidant Power against singlet oxygen", "setting": "Singlet oxygen quenching", "value": "6,359 μmole Trolox equivalent/g"},
      {"measurement": "% Remaining of FL (20 min)", "setting": "[1]", "value": 98.6, "unit": "%"},
      {"measurement": "% Remaining of FL (40 min)", "setting": "[1]", "value": 98.1, "unit": "%"},
      {"measurement": "% Remaining of FL (80 min)", "setting": "[1]", "value": 97.7, "unit": "%"},
      {"measurement": "Stability % Product remaining", "setting": "[3]; 2 min, 0.5 mg/ml, pH 5", "value": 92, "unit": "%"},
      {"measurement": "Stability % Product remaining", "setting": "[3]; 4 min, 0.5 mg/ml, pH 5", "value": 87, "unit": "%"},
      {"measurement": "Stability % Product remaining", "setting": "[3]; 0.1 h, 0.5 mg/ml, pH 5", "value": 85, "unit": "%"},
      {"measurement": "Stability % Product remaining", "setting": "[3]; 8 min, 0.5 mg/ml, pH 5", "value": 81, "unit": "%"},
      {"measurement": "Stability % Product remaining", "setting": "[3]; 10 min, 0.5 mg/ml, pH 5", "value": 80, "unit": "%"},
      {"measurement": "change in fluorescence decay pattern with and without ten-fold excess of CaCl2 (selectivity Cu^2+ over Ca^2+)", "setting": "[2]", "value": "very little change"},
      {"measurement": "Cu^2+ chelation capability, in words", "setting": "[2]", "value": "almost completely chelated"}
    ]},
    {"molecule": "COc1cc(CC(C(C)=O)C(C)=O)ccc1O", "note": "[Compound 1M, 3-(3-methoxy-4-hydroxybenzyl)-2,4-pentanedione]", "values": [
      {"measurement": "% Remaining of FL (20 min)", "setting": "[4]", "value": 100, "unit": "%"},
      {"measurement": "% Remaining of FL (40 min)", "setting": "[4]", "value": 100, "unit": "%"},
      {"measurement": "% Remaining of FL (80 min)", "setting": "[4]", "value": 100, "unit": "%"},
      {"measurement": "Antioxidant Power against singlet oxygen", "setting": "Singlet oxygen quenching", "value": "7,180 μmole Trolox equivalent/g"},
      {"measurement": "Stability % Product remaining", "setting": "[3]; 2 min, 0.5 mg/ml, pH 5", "value": 95, "unit": "%"},
      {"measurement": "Stability % Product remaining", "setting": "[3]; 4 min, 0.5 mg/ml, pH 5", "value": 91, "unit": "%"},
      {"measurement": "Stability % Product remaining", "setting": "[3]; 0.1 h, 0.5 mg/ml, pH 5", "value": 88, "unit": "%"},
      {"measurement": "Stability % Product remaining", "setting": "[3]; 8 min, 0.5 mg/ml, pH 5", "value": 85, "unit": "%"},
      {"measurement": "Stability % Product remaining", "setting": "[3]; 10 min, 0.5 mg/ml, pH 5", "value": 82, "unit": "%"}
    ]},
    {"molecule": "CCOC(=O)C(C)C(Cc1ccc(O)c(OC)c1)C(C)=O", "note": "(stereo not shown) [Compound 2M, 3-(3-methoxy-4-hydroxybenzyl)-4-ethylester-2-pentanone]", "values": [
      {"measurement": "% Remaining of FL (20 min)", "setting": "[4]", "value": 99.8, "unit": "%"},
      {"measurement": "% Remaining of FL (40 min)", "setting": "[4]", "value": 99.3, "unit": "%"},
      {"measurement": "% Remaining of FL (80 min)", "setting": "[4]", "value": 98.5, "unit": "%"}
    ]},
    {"molecule": "Cc1c(O)c(=O)ccn1C", "note": "[Deferiprone, reference compound]", "values": [
      {"measurement": "Fe^3+ chelation capability, in words", "setting": "[4]", "value": "performed poorly"},
      {"measurement": "Fe^2+ chelation capability, in words", "setting": "[1]; study 2C", "value": "good chelation capability"},
      {"measurement": "Cu^2+ chelation capability, in words", "setting": "[2]", "value": "moderate chelation capability"}
    ]},
    {"molecule": "CC(=O)N(O)CCCCCNC(=O)CCC(=O)N(O)CCCCCNC(=O)CCC(=O)N(O)CCCCCN", "note": "[Desferal, reference compound]", "values": [
      {"measurement": "Fe^3+ chelation capability, in words", "setting": "[4]", "value": "moderate chelating capabilities"}
    ]},
    {"molecule": "O=C(O)CC(NCCNC(CC(=O)O)C(=O)O)C(=O)O", "note": "(stereo not shown) [EDDS, ethylenediamine-N,N′-disuccinic acid, reference compound]", "values": [
      {"measurement": "chelation of copper, in words", "setting": "[2]; general statement on applicant's studies in the background", "value": "not an effective chelating agent"},
      {"measurement": "Cu^2+ chelation capability, in words", "setting": "[2]", "value": "poor chelating capabilities"}
    ]},
    {"molecule": "O=C(O)CN(CCN(CC(=O)O)CC(=O)O)CC(=O)O", "note": "[EDTA, ethylenediamine tetraacetic acid, reference compound]", "values": [
      {"measurement": "Fe^3+ chelation capability, in words", "setting": "[4]", "value": "moderate chelating capabilities"},
      {"measurement": "Cu^2+ chelation capability, in words", "setting": "[2]", "value": "poor chelating capabilities"}
    ]},
    {"molecule": "Cc1c(C)c2c(c(C)c1O)CC[C@@](C)(CCC[C@H](C)CCC[C@H](C)CCCC(C)C)O2", "note": "[α Tocopherol, reference compound]", "values": [
      {"measurement": "Antioxidant Power against singlet oxygen", "setting": "Singlet oxygen quenching", "value": "2,636 μmole Trolox equivalent/g"},
      {"measurement": "Stability % Product remaining", "setting": "[3]; singlet oxygen environment (lithium molybdate/H2O2), 2 min", "value": 73, "unit": "%"},
      {"measurement": "Stability % Product remaining", "setting": "[3]; singlet oxygen environment (lithium molybdate/H2O2), 4 min", "value": 58, "unit": "%"},
      {"measurement": "Stability % Product remaining", "setting": "[3]; singlet oxygen environment (lithium molybdate/H2O2), 6 min", "value": 47, "unit": "%"},
      {"measurement": "Stability % Product remaining", "setting": "[3]; singlet oxygen environment (lithium molybdate/H2O2), 8 min", "value": 39, "unit": "%"},
      {"measurement": "Stability % Product remaining", "setting": "[3]; singlet oxygen environment (lithium molybdate/H2O2), 10 min", "value": 35, "unit": "%"}
    ]}
  ]
}
